Key:
HIF-1α = HIF-1α stabilization in cells, TRANSAM HIF-1 ELISA of nuclear fractions; type: cell-based, Human; conditions: epithelial cells (293A) and hepatocellular carcinoma (Hep3B); FIG. 12B
Method: Stabilization of HIFα using compounds and methods of the present invention was examined as follows. Human cells derived from adenovirus-transformed fetal kidney epithelium (293A), cervical epithelial adenocarcinoma (HeLa), hepatocellular carcinoma (Hep3B), squamous carcinoma (SSC-25), and lung fibroblast (HLF) (see, e.g., American Type Culture Collection, Manassas Va.; and Qbiogene, Carlsbad Calif.) were separately seeded into 100 mm culture dishes and grown at 37° C., 20% O2, 10% CO2 in media as follows: HeLa cells in Dulbecco's Modification of Eagle's Medium (DMEM), 2% fetal bovine serum (FBS); HLF cells in DMEM, 10%FBS; 293A cells in DMEM, 5%FBS; and Hep3B cells in Minimal Essential Medium (MEM), Earle's BSS (Mediatech Inc., Herndon Va.), 2 mM L-glutamine, 0.1 mM non-essential amino acids, 1 mM sodium pyruvate, 10% FBS. When cell layers reached confluence, the media was replaced with OPTI-MEM media (Invitrogen Life Technologies, Carlsbad Calif.) and cell layers were incubated for approximately 24 hours in 20% O2, 10% CO2 at 37° C. Compound of the invention (one of compounds B, F, G, and H) or DMSO (0.5 to 1%) was then added to existing medium, and incubation was continued overnight.
Alternatively, nuclear fractions were prepared using a Nuclear Extract kit (Active Motif, Carlsbad Calif.) and were analyzed for HIF-1α using a TRANSAM HIF-1 ELISA kit (Active Motif) according to the manufacturer's instructions.

adrenomedullin = assay: In vivo adrenomedullin mRNA expression (microarray); parameters: species or system Swiss Webster male mice; conditions: mice, heart, kidney, and lung
Method: To determine gene induction patterns over time, twenty four Swiss Webster male mice (30-32 g) were obtained from Simonsen, Inc. and treated by oral gavage with a 4 ml/kg volume of either 0.5% carboxymethyl cellulose (CMC; Sigma-Aldrich, St. Louis Mo.) (0 mg/kg/day) or […] compound B (25 mg/ml in 0.5% CMC) (100 mg/kg). At 4, 8, 16, 24, 48, or 72 hours after the final dose, animals were anesthetized with isoflurane. The mice were then sacrificed and tissue samples of kidney, liver, brain, lung, and heart were isolated and stored in RNALATER solution (Ambion) at −80° C.
For measurement of adrenomedullin mRNA expression, samples were prepared and were hybridized and analyzed as described above in Example 4.

GluT-1 = assay: In vivo GluT-1 gene expression in kidney, dose response (microarray); parameters: species or system Swiss Webster male mice; conditions: mice, low dose (30 mg/ml) or high dose (100 mg/ml), oral gavage once per day for 4 days; FIG. 3A
Method: To investigate the dose response of compounds of the present invention, twelve Swiss Webster male mice (30-32 g) (obtained from Simonsen, Inc., Gilroy Calif.) were treated by oral gavage once per day for 4 days with a 4 ml/kg volume of either 0.5% carboxymethyl cellulose (CMC; Sigma-Aldrich, St. […] Four hours after the final dose, animals were anesthetized, sacrificed, and approximately 150 mg of liver and each kidney were isolated and stored in RNALATER solution (Ambion) at −20° C.
RNA from tissues obtained from the experiments described above was isolated using the following protocol. A 50 mg section of each organ was diced, 875 μl of RLT buffer (RNEASY kit; Qiagen Inc., Valencia Calif.) was added, and the pieces were homogenized for about 20 seconds using a rotor-stator POLYTRON homogenizer (Kinematica, Inc., Cincinnati Ohio). […] The RNA was eluted into 80 μL of water and quantitated with RIBOGREEN reagent (Molecular Probes, Eugene Oreg.). […] The absorbance at 260 and 280 nm was measured to determine RNA purity and concentration.
Alternatively, tissue samples were diced and homogenized in TRIZOL reagent (Invitrogen Life Technologies, Carlsbad Calif.) using a rotor-stator POLYTRON homogenizer (Kinematica). […] The absorbance at 260 and 280 nm was measured to determine RNA purity and concentration. […]

O=C(O)CNC(=O)c1nc(Cl)c2ccccc2c1O [compound B, [(1-Chloro4-hydroxy-isoquinoline-3-carbonyl)-amino]-acetic acid]
HIFα stabilization and accumulation (ELISA) compared to vehicle-treated control cells (HIF-1α): stabilization and accumulation of HIFα
expression of adrenomedullin (adrenomedullin; 100 mg/kg oral gavage, FIG. 10B): increased in various tissues
time within which adrenomedullin mRNA levels returned to control levels (adrenomedullin; time course): 16 to 24 h
expression of the gene encoding GluT-1 in kidney (GluT-1): dose-dependent alteration
